Experimental data published in patent US5371071A, “Peptide and pseudopeptide compounds which are therapeutically active in the blood coagulation cascade” (Adir et Compagnie, priority 1992, dated 1994).

Experiment: Anticoagulant activity ex vivo, prothrombin time
Assay type: in vivo, OFA rats
Conditions: i.v.
Protocol: OFA rats, fasted or otherwise, are anesthetized with pentobarbital (60 mg/kg i.p.). The carotid and the jugular are exposed and catheterized. The catheters are flushed with citrated (1/40) physiological solution. After installation of the catheters, a sample of 1.5 cm^3 of arterial blood is withdrawn into 0.109M citrate (1/9).
30 minutes later, the test product is admini- stered i.v. in a volume of 1 ml.
Arterial blood samples (1.5 ml) are then withdrawn at 1 min 30 sec, 3 min, 5 min, 15 min, 30 min and 60 min.
As each sample is withdrawn, 1.5 ml of citrated physiological solution is reinjected into the animal via the carotid.
The blood tubes are centrifuged for 15 min at 4000 rpm (preparation of plasma).
100 μl of plasma are incubated with 200 μl of neoplastin calcium. The time of onset of the coagulation phenomenon is measured.

In the case of hirudin, the “duration of in vivo activity” value is reported as 30 min.
